Source: paper PMC7363839, “A Peptide-Based PD1 Antagonist Enhances T-Cell Priming and Efficacy of a Prophylactic Malaria Vaccine and Promotes Survival in a Lethal Malaria Model” (Frontiers in Immunology, 2020)

Tested on: P. yoelii 17 XNL sporozoites
Assay: P. yoelii 17 XNL sporozoite challenge of AdPyCS-immunized mice
Type: in vivo, BALB/c mice
Details: suboptimal AdPyCS IM; 200 μg IP days 1, 3, 5, 7; challenge day 12 with 100 sporozoites IV; AdPyCS alone 4.8 ± 0.6 days
Method: Sporozoite challenge experiments were performed, as described previously ([32]). Briefly, immunized mice were administered 100 live P. yoelii 17 XNL sporozoites IV via the tail vein. Parasitemia was monitored from days 3 to 10 after sporozoite challenge by detecting the presence of parasitized red blood cells in thin blood smears to assess complete protection against malaria. Briefly, a drop of blood was collected from the mouse tail vein for thin blood smears on pre-cleaned glass slides. Thin blood smears were fixed with absolute methanol and then stained with diluted Giemsa stain (1:20, v/v) (Sigma-Aldrich, St. Louis, MO) for 10 min. […]
Figure 2 LD01 increases antigen-specific CD8^+ T cell numbers following AdPyCS vaccination. (A) At day 12 post-AdPyCS immunization, immunogenicity was assessed by measuring the number of splenic PyCS-specific, IFN-γ-secreting CD8^+ T cells using the ELISpot assay after stimulation with the H-2kd restricted CD8 epitope SYVPSAEQI. Data are expressed as the mean ± SD. […] Significant differences between AdPyCS + control peptide and treated mice were determined using a one-way ANOVA multiple comparisons test and are denoted by *p < 0.05 and **p < 0.005. […] Data represent two independent experiments (n = 10/group/experiment) and are expressed as the mean percent protection. […]

With “OVA323−339 (KISQAVHAAHAEINEAG; UniProt P01012 323-339, looked up, fragment) [control peptide, control peptide used in AdPyCS vaccine studies]” the time of patency was 4.7 ± 0.7 days.
